Results published in publication PMC7462607 (eLife, 2020).

Columns and labels:
CDK12 = target: T1, CDK12 (Homo sapiens, UniProt Q9NYV4); experiment: Western blotting of CDK12 protein level in A549 cells; assay type: cell-based; details: A549, after 8 hr of treatment
T1 construct: Western blotting of CDK12 and CCNK from A549 cells treated with HQ461; endogenous in cells; host or cells: A549
Method: Standard SDS-PAGE and western blotting procedures were used with the following modifications. For preparation of total lysates, cells were rinsed with DPBS to remove residual medium and then lysed in 20 mM HEPES-NaOH, pH 8.0, 10 mM NaCl, 2 mM MgCl2, 1% SDS freshly supplemented with 0.5 units/µL of benzonase and 1x cOmplete, Mini, EDTA-free protease inhibitor cocktail (Roche, Bazel, Switzerland). Protein concentrations of the resulting lysates were quantified by the BCA method. Between 30 to 60 µg of proteins were resolved on SDS-PAGE and transferred to nitrocellulose membranes with a pore size of 0.5 μm. Membranes were blocked in 5% nonfat milk PBST (0.1% v/v Tween-20) for 30 min before blotting with antibodies. […]

[1] = test system: CDK12 G731E or G731R knock-in A549 cells; experiment: Cell viability assay, CDK12 G731E or G731R knock-in A549 cells; assay type: cell-based; details: Homo sapiens, four knock-in clones
Method: Seven hundred A549 cells or 1,000 HCT-116 cells in 50 µL of medium were plated per well in 384-well flat clear bottom white polystyrene TC-treated microplates (Corning, Corning, USA). After overnight attachment, cells were dosed with a serial dilution of HQ461 with a D300e digital dispenser (Tecan, Männedorf, Switzerland). Cell survival was measured 72 hr later using CellTiter-Glo luminescent cell viability assay kit (Promega, Madison, USA) following vendor instructions. Luminescence was recorded by EnVison multimode plate reader (PerkinElmer, Waltham, USA). IC50 was determined with GraphPad Prism using baseline correction (by normalizing to DMSO control), the asymmetric (five parameter) equation, and least squares fit.
An sgRNA targeting CDK12 (5’-[…]-3’) was cloned into the pSpCas9(BB)−2A-eGFP (PX458) vector (Addgene 48138). For CDK12 G731E/R knock-in, 1 million A549 cells were nucleofected (using 4D-Nucleofector, Lonza, Basel, Switzerland) with PX458-sgCDK12 and single-stranded oligodeoxynucleotides (G731E: 5’-ttatatacttggccataggttccttctccaataatTTCaataatgtcaaacttgtccacacagcgtttcccccagtc-3’; G731R: 5’-ttatatacttggccataggttccttctccaataatGCGaataatgtcaaacttgtccacacagcgtttcccccagtc-3’). Afterwards, cells were exposed to 5 µM 0461 for 2 weeks to select for cells with CDK12 G731E/R knock-in. […]

T1 sequence (Q9NYV4 whole entry): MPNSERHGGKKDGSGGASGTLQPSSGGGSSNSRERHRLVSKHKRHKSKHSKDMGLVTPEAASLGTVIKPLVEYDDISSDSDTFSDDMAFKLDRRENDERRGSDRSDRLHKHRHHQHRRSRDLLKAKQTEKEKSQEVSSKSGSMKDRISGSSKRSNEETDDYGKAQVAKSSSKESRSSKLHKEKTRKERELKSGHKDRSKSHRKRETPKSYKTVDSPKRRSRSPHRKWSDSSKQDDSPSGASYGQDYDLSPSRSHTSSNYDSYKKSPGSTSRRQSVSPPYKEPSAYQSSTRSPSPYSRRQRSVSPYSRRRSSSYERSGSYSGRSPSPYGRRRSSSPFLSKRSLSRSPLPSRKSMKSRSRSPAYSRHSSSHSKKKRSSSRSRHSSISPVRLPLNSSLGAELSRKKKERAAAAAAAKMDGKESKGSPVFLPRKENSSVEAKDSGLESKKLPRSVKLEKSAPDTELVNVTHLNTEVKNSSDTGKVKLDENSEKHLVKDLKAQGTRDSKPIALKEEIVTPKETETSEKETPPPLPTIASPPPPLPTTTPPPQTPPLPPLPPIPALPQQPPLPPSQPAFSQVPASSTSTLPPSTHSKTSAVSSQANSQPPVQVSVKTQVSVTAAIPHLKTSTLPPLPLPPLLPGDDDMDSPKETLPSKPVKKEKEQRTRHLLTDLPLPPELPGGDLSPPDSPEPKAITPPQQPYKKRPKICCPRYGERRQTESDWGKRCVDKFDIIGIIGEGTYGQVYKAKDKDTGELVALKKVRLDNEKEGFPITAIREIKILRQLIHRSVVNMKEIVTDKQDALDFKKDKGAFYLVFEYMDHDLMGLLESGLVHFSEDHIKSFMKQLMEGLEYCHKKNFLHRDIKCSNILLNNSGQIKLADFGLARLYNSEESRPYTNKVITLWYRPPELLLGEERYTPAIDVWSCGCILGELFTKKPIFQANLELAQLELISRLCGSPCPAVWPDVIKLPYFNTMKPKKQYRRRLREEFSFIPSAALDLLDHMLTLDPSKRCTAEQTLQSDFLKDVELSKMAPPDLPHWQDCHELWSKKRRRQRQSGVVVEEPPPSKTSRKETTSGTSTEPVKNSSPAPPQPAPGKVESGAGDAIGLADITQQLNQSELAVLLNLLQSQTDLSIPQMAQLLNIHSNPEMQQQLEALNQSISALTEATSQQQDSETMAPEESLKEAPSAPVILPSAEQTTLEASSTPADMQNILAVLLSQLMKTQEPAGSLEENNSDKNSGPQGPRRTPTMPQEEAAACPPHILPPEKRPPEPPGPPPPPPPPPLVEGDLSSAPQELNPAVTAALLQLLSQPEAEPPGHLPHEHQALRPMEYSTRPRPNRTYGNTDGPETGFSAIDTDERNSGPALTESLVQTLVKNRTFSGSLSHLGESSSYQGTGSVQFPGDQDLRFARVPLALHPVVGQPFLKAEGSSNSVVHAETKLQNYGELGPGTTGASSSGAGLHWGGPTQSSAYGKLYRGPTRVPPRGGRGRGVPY
T1 sequence (O75909 whole entry partner): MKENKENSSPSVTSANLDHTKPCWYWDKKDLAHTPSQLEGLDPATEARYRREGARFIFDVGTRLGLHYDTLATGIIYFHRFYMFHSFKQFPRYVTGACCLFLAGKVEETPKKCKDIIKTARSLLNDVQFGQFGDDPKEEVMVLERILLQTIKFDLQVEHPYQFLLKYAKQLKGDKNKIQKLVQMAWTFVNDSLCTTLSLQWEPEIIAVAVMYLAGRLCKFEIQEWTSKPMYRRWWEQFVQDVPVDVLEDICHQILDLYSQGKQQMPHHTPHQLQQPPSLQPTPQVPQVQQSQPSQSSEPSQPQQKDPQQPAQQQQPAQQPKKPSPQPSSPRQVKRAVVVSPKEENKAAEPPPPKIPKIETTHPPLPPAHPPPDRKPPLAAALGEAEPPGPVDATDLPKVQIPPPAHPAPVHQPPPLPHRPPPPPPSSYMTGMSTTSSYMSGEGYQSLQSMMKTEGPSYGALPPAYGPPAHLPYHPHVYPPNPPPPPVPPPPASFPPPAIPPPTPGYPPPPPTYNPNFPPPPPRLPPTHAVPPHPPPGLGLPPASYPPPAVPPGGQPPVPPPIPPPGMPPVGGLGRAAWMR

Cc1cccc(Nc2nc(CC(=O)Nc3ncc(C)s3)cs2)n1 [HQ461, 2-(2-((6-methylpyridin-2-yl)amino)thiazol-4-yl)-N-(5-methylthiazol-2-yl)acetamide]
reduction of CDK12 protein level (CDK12): 50% | IC50 [1]: 25.2 to 36.5 µM
